Test results as given in patent publication US7169803B2, “N-substituted prodrugs of fluorooxindoles” (Bristol-Myers Squibb Company, priority 2004, dated 2007).
Where a name gives a salt, the structure may show the parent alone.

tested on: non-BK native currents in the oocytes; assay: Effect on non-BK native currents in oocytes (current remaining in presence of IBTX); type: cell-based, Xenopus; details: at the tested concentration
Method: (§1) The ability of the compound of Formula IV to open BK channels and increase whole-cell outward (K^+) BK-mediated currents was assessed under voltage-clamp conditions by determining their ability to increase cloned mammalian (mSlo or hSlo) BK-mediated outward current heterologously expressed in Xenopus oocytes [Butler, A., et al., Science, 261, pp. 221–224 (1993); and Dworetzky, S. I., et al., Mol. Brain Res., 27, pp. 189–193 (1994)]. The two BK constructs employed represent nearly structurally identical homologous proteins, and have proven to be pharmacologically identical in our tests. To isolate BK current from native (background, non-BK) current, the specific and potent BK channel-blocking toxin iberiotoxin (IBTX) [Galvez, A., et al., J. Biol. Chem, 265, pp. 11083–11090 (1990)] was employed at a supramaximal concentration (50 nM). The relative contribution of BK channels current to total outward current was determined by subtraction of the current remaining in the presence of IBTX (non-BK current) from the current profiles obtained in all other experimental conditions (control, drug, and wash). […] The compound of Formula IV was shown in at least 5 oocytes at a concentration of 10 μM to increase BK current to 170% of control of IBTX-sensitive current. […]

SMILES | effect on non-BK native currents in the oocytes
COc1ccc(Cl)cc1C1(F)C(=O)Nc2cc(C(F)(F)F)ccc21 (stereo not shown) [compound of Formula IV, 3-(5-chloro-2-methoxyphenyl)-3-fluoro-6-(trifluoromethyl)indolin-2-one] | did not effect non-BK native currents

tested on: cloned mammalian (mSlo or hSlo) BK channels heterologously expressed in Xenopus oocytes; assay: BK-mediated outward current in Xenopus oocytes, two-electrode voltage clamp; type: cell-based; details: 10 μM, at least 5 oocytes, steps from -60 mV to +140 mV
Method: as §1

SMILES | increase BK current to % of control of IBTX-sensitive current
COc1ccc(Cl)cc1C1(F)C(=O)Nc2cc(C(F)(F)F)ccc21 (stereo not shown) [compound of Formula IV, 3-(5-chloro-2-methoxyphenyl)-3-fluoro-6-(trifluoromethyl)indolin-2-one] | 170 % of control

tested on: not given; assay: not given; details: cited from earlier work

SMILES | aqueous solubility
COc1ccc(Cl)cc1[C@]1(F)C(=O)Nc2cc(C(F)(F)F)ccc21 [Compound of Formula (S)-IV, (S)-3-(5-chloro-2-methoxyphenyl)-3-fluoro-6-(trifluoromethyl)-indolin-2-one] | low aqueous solubility

tested on: traumatic brain injury (TBI); assay: not given; details: rat TBI model; Cheney, et al. 2001; cited from earlier work

SMILES | reductions in edema in regions adjacent to the impact zone
COc1ccc(Cl)cc1[C@]1(F)C(=O)Nc2cc(C(F)(F)F)ccc21 [Compound of Formula (S)-IV, (S)-3-(5-chloro-2-methoxyphenyl)-3-fluoro-6-(trifluoromethyl)-indolin-2-one] | significant reductions in edema

tested on: not given; assay: not given; details: not given

SMILES | melting point
COc1ccc(Cl)cc1[C@]1(F)C(=O)N(COC(=O)CN(C)C)c2cc(C(F)(F)F)ccc21 (as salt: hydrochloride) [Example 14, (S)-(3-(5-chloro-2-methoxyphenyl)-3-fluoro-2-oxo-6-(trifluoromethyl)indolin-1-yl)methyl 2-(dimethylamino)acetate, hydrochloride)] | 157 to 160 °C
COc1ccc(Cl)cc1[C@]1(F)C(=O)N(COC(=O)c2ccc(CN3CCOCC3)cc2)c2cc(C(F)(F)F)ccc21 (as salt: hydrochloride) [Example 23, (S)-(3-(5-chloro-2-methoxyphenyl)-3-fluoro-2-oxo-6-(trifluoromethyl)indolin-1-yl)methyl 4-(morpholinomethyl)benzoate, hydrochloride] | 174 to 178 °C
COc1ccc(Cl)cc1[C@]1(F)C(=O)N(COC(=O)c2ccc(CN3CCN(C)CC3)cc2)c2cc(C(F)(F)F)ccc21 (as salt: hydrochloride) [Example 25] | 265 to 269 °C (dec.)
COc1ccc(Cl)cc1[C@]1(F)C(=O)N(COC(=O)c2cccc(CN3CCN(C)CC3)c2)c2cc(C(F)(F)F)ccc21 (as salt: hydrochloride) [Example 26] | 190 to 193 °C (dec.)
CCN(CC)Cc1cccc(C(=O)OCN2C(=O)[C@@](F)(c3cc(Cl)ccc3OC)c3ccc(C(F)(F)F)cc32)c1 (as salt: hydrochloride) [Example 28, (S)-(3-(5-chloro-2-methoxyphenyl)-3-fluoro-2-oxo-6-(trifluoromethyl)indolin-1-yl)methyl 3-((diethylamino)methyl)benzoate, hydrochloride] | 195 to 198 °C (dec.)
CCN(CC)CCN(CC)Cc1ccc(C(=O)OCN2C(=O)[C@@](F)(c3cc(Cl)ccc3OC)c3ccc(C(F)(F)F)cc32)cc1 (as salt: hydrochloride) [Example 29, (S)-(3-(5-chloro-2-methoxyphenyl)-3-fluoro-2-oxo-6-(trifluoromethyl)indolin-1-yl)methyl 4-(((2-(diethylamino)ethyl)(ethyl)amino)methyl)benzoate, hydrochloride] | 155 to 160 °C
CCN(CC)CCN(CC)Cc1cccc(C(=O)OCN2C(=O)[C@@](F)(c3cc(Cl)ccc3OC)c3ccc(C(F)(F)F)cc32)c1 (as salt: hydrochloride) [Example 30, (S)-(3-(5-chloro-2-methoxyphenyl)-3-fluoro-2-oxo-6-(trifluoromethyl)indolin-1-yl)methyl 3-(((2-(diethylamino)ethyl)(ethyl)amino)methyl)benzoate, hydrochloride] | 120 to 125 °C
CCN(CC)Cc1ccc(C(=O)OCN2C(=O)[C@@](F)(c3cc(Cl)ccc3OC)c3ccc(C(F)(F)F)cc32)cc1 (as salt: trifluoroacetate) [Example 27, (S)-(3-(5-chloro-2-methoxyphenyl)-3-fluoro-2-oxo-6-(trifluoromethyl)indolin-1-yl)methyl 4-((diethylamino)methyl)benzoate, trifluoroacetate] | 75 to 80 °C
COc1ccc(Cl)cc1[C@]1(F)C(=O)N(COC(=O)c2ccc(CN3CCCCC3)cc2)c2cc(C(F)(F)F)ccc21 (as salt: trifluoroacetate) [Example 31, (S)-4-Piperidin-1-ylmethyl-benzoic acid 3-(5-chloro-2-methoxy-phenyl)-3-fluoro-2-oxo-6-trifluoromethyl-2,3-dihydro-indol-1-ylmethyl ester, trifluoroacetate] | 85 to 89 °C

Other lines, results leading:

melting point | SMILES
68 to 71 °C (dec.) | COc1ccc(Cl)cc1[C@]1(F)C(=O)N(C(=O)OCOC(=O)CCC(=O)O)c2cc(C(F)(F)F)ccc21 [Example 16, (S)-4-((3-(5-chloro-2-methoxyphenyl)-3-fluoro-2-oxo-6-(trifluoromethyl)indoline-1-carbonyloxy)methoxy)-4-oxobutanoic acid]
103 to 107 °C | COc1ccc(Cl)cc1[C@]1(F)C(=O)N(C(=O)N[C@@H](C)C(=O)O)c2cc(C(F)(F)F)ccc21 [Example 35, (S)-2-((S)-3-(5-chloro-2-methoxyphenyl)-3-fluoro-2-oxo-6-(trifluoromethyl)-indoline-1-carboxamido)propanoic acid]
90 to 94 °C | COc1ccc(Cl)cc1[C@]1(F)C(=O)N(C(=O)N[C@@H](CCC(=O)O)C(=O)O)c2cc(C(F)(F)F)ccc21 [Example 37, (S)-2-((S)-3-(5-chloro-2-methoxyphenyl)-3-fluoro-2-oxo-6-(trifluoromethyl)-indoline-1-carboxamido)pentanedioic acid]
107 to 110 °C | COc1ccc(Cl)cc1[C@]1(F)C(=O)N(C(=O)NC(C)(C)C(=O)O)c2cc(C(F)(F)F)ccc21 [Example 38, (S)-2-(3-(5-chloro-2-methoxyphenyl)-3-fluoro-2-oxo-6-(trifluoromethyl)-indoline-1-carboxamido)-2-methylpropanoic acid]
100 to 104 °C | COc1ccc(Cl)cc1[C@]1(F)C(=O)N(C(=O)N[C@H](C(=O)O)C(C)C)c2cc(C(F)(F)F)ccc21 [Example 39, (S)-2-((S)-3-(5-chloro-2-methoxyphenyl)-3-fluoro-2-oxo-6-(trifluoromethyl)-indoline-1-carboxamido)-3-methylbutanoic acid]
88 to 92 °C | CC[C@H](C)[C@H](NC(=O)N1C(=O)[C@@](F)(c2cc(Cl)ccc2OC)c2ccc(C(F)(F)F)cc21)C(=O)O [Example 40, (2S,3S)-2-((S)-3-(5-chloro-2-methoxyphenyl)-3-fluoro-2-oxo-6-(trifluoromethyl)indoline-1-carboxamido)-3-methylpentanoic acid]
98 to 102 °C | COc1ccc(Cl)cc1[C@]1(F)C(=O)N(C(=O)N[C@@H](Cc2ccccc2)C(=O)O)c2cc(C(F)(F)F)ccc21 [Example 41, (S)-2-((S)-3-(5-chloro-2-methoxyphenyl)-3-fluoro-2-oxo-6-(trifluoromethyl)-indoline-1-carboxamido)-3-phenylpropanoic acid]
72 to 76 °C | COc1ccc(Cl)cc1[C@]1(F)C(=O)N(C(=O)NCCC(=O)O)c2cc(C(F)(F)F)ccc21 [Example 42, (S)-3-(3-(5-chloro-2-methoxyphenyl)-3-fluoro-2-oxo-6-(trifluoromethyl)-indoline-1-carboxamido)propanoic acid]

tested on: focal cerebral ischemia (MCAO); assay: Focal stroke model: permanent MCA/CCA occlusion, cortical infarct volume; type: in vivo, Wistar rat; details: intravenously (0.3 mg//kg) single bolus two hours after MCA occlusion; vs vehicle-treated control; measured 24 hours after MCAO
Method: To determine the ability of the compounds of the present invention to reduce cell loss resulting from neuronal ischemia, a standard focal cerebral ischemia is induced by permanent occlusion of the left middle cerebral artery (MCA) and common carotid artery (CCA) with one hour occlusion of the right CCA in the Wistar rat. The surgeries are performed using the sub-temporal approach of A. Tamura, et al., J. Cereb. Blood Flow Metab., 1, pp. 53–60, (1981) and its modifications [K. Osborne, et al., J. Neurol Neurosurg. Psychiatry, 50, pp. 402–410 (1987) and S. Menzies, et al., Neurosurgery, 31, pp. 100–107, (1992).]
The compound of Formula IV was evaluated in the focal stroke model involving permanent occlusion of the left MCA (MCAO) and CCA (CCAO) and temporary occlusion of the right CCA in the Wistar rat [Gribkoff, et al. Nature Med. 7, pp. 471–477 (2001)]. This procedure results in a reliably large neocortical infarct volume that is measured by means of vital dye exclusion in serial slices through the brain 24 hours after MCAO. In the present test, compounds were administered using an i.v. or i.p. route of administration two hours after occlusion.

SMILES | reduction of cortical infarct volume
COc1ccc(Cl)cc1C1(F)C(=O)Nc2cc(C(F)(F)F)ccc21 (stereo not shown) [compound of Formula IV, 3-(5-chloro-2-methoxyphenyl)-3-fluoro-6-(trifluoromethyl)indolin-2-one] | about 28%
